From patent US20090270435A1 (priority 2006, published 2009)
pIC50: −log10 of the molar value.

target: T1, ACC1 from rat liver (Rattus norvegicus, UniProt P11497); assay: Direct inhibition of ACC1 activity (14C-bicarbonate incorporation); type: biochemical; conditions: ACC1 from rat liver
T1 construct: The livers (for ACC1 preparation) or skeletal muscle tissue (for ACC2 preparation) are removed; from tissue; host or cells: liver of male CD rats (fasted, then fed a high sucrose diet)
Outline: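 ACC1 partially purified from livers of fasted/sucrose-refed male rats by PEG and ammonium sulfate fractionation, then preincubated 30 min at 37°C with 10 mM citrate and 1.0 mM MgCl2. Reaction ran 7 min at 37°C, stopped with HCl; acid-stable radioactivity counted by scintillation; HCl-first tubes served as blanks.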

| pIC50 | Molecule |
| --- | --- |
| 7.53 | CCc1cc(C(=O)N2CCC3(CC2)CC(=O)c2c(OC)cc(C)cc2O3)cc2cn[nH]c12 [Ex. C3, 1′-[(7-ethyl-1H-indazol-5-yl)carbonyl]-5-methoxy-7-methylspiro[chromene-2,4′-piperidin]-4(3H)-one] |
| 6.65 | Cc1cc2c(cc1Cl)OC1(CCN(C(=O)c3cccc4cn[nH]c34)CC1)CC2=O [Ex. H2, 7-chloro-1′-(1H-indazol-7-ylcarbonyl)-6-methylspiro[chromene-2,4′-piperidin]-4(3H)-one] |
| 7.49 | Cc1cc2c(cc1Br)C(=O)CC1(CCN(C(=O)c3cc(C)c4[nH]ncc4c3)CC1)O2 [Ex. A8, 6-bromo-7-methyl-1′-[(7-methyl-1H-indazol-5-yl)carbonyl]spiro[chromene-2,4′-piperidin]-4(3H)-one] |
| 5.63 | O=C1CC2(CCN(C(=O)c3cccc4cn[nH]c34)CC2)Oc2cc(F)ccc21 [Ex. H19, 7-fluoro-1′-(1H-indazol-7-ylcarbonyl)spiro[chromene-2,4′-piperidin]-4(3H)-one] |
| 7.00 | COc1cccc2c1C(=O)CC1(CCN(C(=O)c3ccc4[nH]cc(Cl)c4c3)CC1)O2 [Ex. L10, 1′-[(3-chloro-1H-indol-5-yl)carbonyl]-5-methoxyspiro[chromene-2,4′-piperidin]-4(3H)-one] |
| 7.53 | CNC(=O)c1ccc2c(c1)C(=O)CC1(CCN(C(=O)c3cc(C)c4[nH]ncc4c3)CC1)O2 [Ex. A5, N-methyl-1′-[(7-methyl-1H-indazol-5-yl)carbonyl]-4-oxo-3,4-dihydrospiro[chromene-2,4′-piperidine]-6-carboxamide] |
| 6.98 | Cc1cc(C(=O)N2CCC3(CC2)CC(=O)c2cc(F)c(Cl)cc2O3)cc2cn[nH]c12 [Ex. A22, 7-chloro-6-fluoro-1′-[(7-methyl-1H-indazol-5-yl)carbonyl]spiro[chromene-2,4′-piperidin]-4(3H)-one] |
| 7.42 | Cc1cc(C(=O)N2CCC3(CC2)CC(=O)c2cc(C(N)=O)ccc2O3)cc2cn[nH]c12 [Ex. A10, 1′-[(7-methyl-1H-indazol-5-yl)carbonyl]-4-oxo-3,4-dihydrospiro[chromene-2,4′-piperidine]-6-carboxamide] |
| 7.51 | CCc1cc(C(=O)N2CCC3(CC2)CC(=O)c2cc(Cl)c(C)cc2O3)cc2cn[nH]c12 [Ex. C4, 6-chloro-1′-[(7-ethyl-1H-indazol-5-yl)carbonyl]-7-methylspiro[chromene-2,4′-piperidin]-4(3H)-one] |
| 6.45 | Cc1cc2c(cc1C)C(=O)CC1(CCN(C(=O)c3ccc4nn(C)cc4c3)CC1)O2 [Ex. J3, 6,7-dimethyl-1′-[(2-methyl-2H-indazolyl)carbonyl]spiro[chromene-2,4-piperidin]-4(3H)-one] |
| 5.95 | Cc1cc(C(=O)N2CCC3(CC2)CC(=O)c2cc(S(C)(=O)=O)ccc2O3)cc2cn[nH]c12 [Ex. A35, 1′-[(7-methyl-1H-indazol-5-yl)carbonyl]-6-(methylsulfonyl)spiro[chromene-2,4′-piperidin]-4(3H)-one] |
| 7.81 | COc1cccc2c1C(=O)CC1(CCN(C(=O)c3ccc4nc(-c5ccccc5)[nH]c4c3)CC1)O2 [Ex. L35, 5-methoxy-1′-[(2-phenyl-1H-benzimidazol-6-yl)-carbonyl]spiro[chromene-2,4′-piperidin]-4(3H)-one] |
| 8.00 | Cc1cc2c(cc1C)C(=O)CC1(CCN(C(=O)c3ccc4[nH]c5c(c4c3)CCNC5=O)CC1)O2 [Ex. K1, 6,7-dimethyl-1′-[(1-oxo-2,3,4,9-tetrahydro-1H-beta-carbolin-6-yl)carbonyl]spiro[chromene-2,4′-piperidin]-4(3H)-one] |
| 5.61 | COc1cccc2c1C(=O)CC1(CCN(C(=O)c3cccc4cn[nH]c34)CC1)O2 [Ex. H20, 1′-(1H-indazol-7-ylcarbonyl)-5-methoxyspiro[chromene-2,4′-piperidin]-4(3H)-one] |
| 7.12 | Cc1cc2c(cc1C)C(=O)CC1(CCN(C(=O)c3ccc4c(C)nn(C)c4c3)CC1)O2 [Ex. G3, 1′-[(1,3-dimethyl-1H-indazol-6-yl)carbonyl]-6,7-dimethylspiro[chromene-2,4′-piperidin]-4(3H)-one] |
| 6.89 | Cc1cc2c(cc1C)C(=O)CC1(CCN(C(=O)c3ccc4c(c3)nc(N3CCCC3)n4C)CC1)O2 [Ex. L29, 6,7-dimethyl-1′-[(1-methyl-2-pyrrolidin-1-yl-1H-benzimidazol-5-yl)carbonyl]spiro[chromene-2,4′-piperidin]-4(3H)-one] |
| 6.54 | 6-chloro-1′-[(7-chloro-1H-indazol-5-yl)carbonyl]-7-fluorospiro[chromene-2,4′-piperidin]-4(3H)-one [Ex. B13] |
| 6.40 | Cc1cc(C(=O)N2CCC3(CC2)CC(=O)c2ccc(-c4ccccc4)cc2O3)cc2cn[nH]c12 [Ex. A34, 1′-[(7-methyl-1H-indazol-5-yl)carbonyl]-7-phenylspiro[chromene-2,4′-piperidin]-4(3H)-one] |
| 6.84 | Cc1cc(C)c2c(c1)OC1(CCN(C(=O)c3cc(C)c4[nH]ncc4c3)CC1)CC2=O [Ex. A29, 5,7-dimethyl-1′-[(7-methyl-1H-indazol-5-yl)carbonyl]spiro[chromene-2,4′-piperidin]-4(3H)-one] |
| 6.74 | O=C1CC2(CCN(C(=O)c3ccc4c(Cl)c[nH]c4c3)CC2)Oc2ccc(Cl)cc21 [Ex. L7, 6-chloro-1′-[(3-chloro-1H-indol-6-yl)carbonyl]spiro[chromene-2,4′-piperidin]-4(3H)-one] |
| 5.86 | O=C1CC2(CCN(C(=O)c3cccc4cn[nH]c34)CC2)Oc2ccc(Cl)cc21 [Ex. H14, 6-chloro-1′-(1H-indazol-7-ylcarbonyl)spiro[chromene-2,4′-piperidin]-4(3H)-one] |
| 7.00 | Cc1cc2c(cc1C)C(=O)CC1(CCN(C(=O)c3ccc4nc[nH]c4c3)CC1)O2 [Ex. L33, 1′-(1H-benzimidazol-6-ylcarbonyl)-6,7-dimethylspiro[chromene-2,4′-piperidin]-4(3H)-one] |
| < 6.00 | CC(C)n1nnc2cc(C(=O)N3CCC4(CC3)CC(=O)c3cc(Cl)ccc3O4)ccc21 [Ex. L42, 6-chloro-1′-[(1-isopropyl-1H-1,2,3-benzotriazol-5-yl)carbonyl]spiro[chromene-2,4′-piperidin]-4(3H)-one] |
| 7.50 | COc1cc(Cl)c2c(c1)OC1(CCN(C(=O)c3cc(C)c4[nH]ncc4c3)CC1)CC2=O [Ex. A6, 5-chloro-7-methoxy-1′-[(7-methyl-1H-indazol-5-yl)carbonyl]spiro[chromene-2,4′-piperidin]-4(3H)-one] |
| 6.96 | COc1cccc2c1C(=O)CC1(CCN(C(=O)c3cc(Cl)c4[nH]ncc4c3)CC1)O2 [B6, 1′-[(7-chloro-1H-indazol-5-yl)carbonyl]-5-methoxyspiro[chromene-2,4′-piperidin]-4(3H)-one] |

| Molecule | pIC50 |
| --- | --- |
| Cc1cc2c(cc1Cl)C(=O)CC1(CCN(C(=O)c3ccc4[nH]ccc4c3)CC1)O2 [Ex. L8, 6-chloro-1′-(1H-indol-5-ylcarbonyl)-7-methylspiro[chromene-2,4′-piperidin]-4(3H)-one] | 6.34 |

same assay, conditions: Table of Examples M1-M36

| pIC50 | Molecule |
| --- | --- |
| 6.65 | COc1ccc2c(c1F)C(=O)CC1(CCN(C(=O)c3cccc(-c4cc[nH]n4)c3)CC1)O2 [Ex. M14, 5-fluoro-6-methoxy-1′-[3-(1H-pyrazol-3-yl)benzoyl]spiro[chromene-2,4′-piperidin]-4(3H)-one] |
| 7.43 | COc1cc(C)cc2c1C(=O)CC1(CCN(C(=O)c3cccc(-c4cc[nH]n4)c3)CC1)O2 [Ex. M1, 5-methoxy-7-methyl-1′-[3-(1H-pyrazol-3-yl)benzoyl]spiro[chromene-2,4′-piperidin]-4(3H)-one] |
| 6.36 | COc1cc2c(c(OC)c1OC)C(=O)CC1(CCN(C(=O)c3cccc(-c4cc[nH]n4)c3)CC1)O2 [Ex. M21, 5,6,7-trimethoxy-1′-[3-(1H-pyrazol-3-yl)benzoyl]spiro[chromene-2,4′-piperidin]-4(3H)-one] |
| 6.21 | O=C1CC2(CCN(C(=O)c3cccc(-c4cc[nH]n4)c3)CC2)Oc2ccc(Cl)cc21 [Ex. M30, 6-Chloro-1′-[3-(1H-pyrazol-3-yl)benzoyl]spiro[chromene-2,4′-piperidin]-4(3H)-one] |
| 6.32 | Cc1ccc2c(c1)C(=O)CC1(CCN(C(=O)c3cccc(-c4cc[nH]n4)c3)CC1)O2 [Ex. M23, 6-methyl-1′-[3-(1H-pyrazol-3-yl)benzoyl]spiro[chromene-2,4′-piperidin]-4(3H)-one] |
| 6.89 | COc1ccc2c(c1)C(=O)CC1(CCN(C(=O)c3cccc(-c4cc[nH]n4)c3)CC1)O2 [Ex. M6, 6-methoxy-1′-[3-(1H-pyrazol-3-yl)benzoyl]spiro[chromene-2,4′-piperidin]-4(3H)-one] |
| 5.70 | O=C1CC2(CCN(C(=O)c3cccc(-c4cc[nH]n4)c3)CC2)Oc2cc(Cl)c(F)cc21 [Ex. M36, 7-chloro-6-fluoro-1-[3-(1H-pyrazol-3-yl)benzoyl]spiro[chromene-2,4′-piperidin]-4(3H)-one] |
| 6.13 | O=C1CC2(CCN(C(=O)c3cccc(-c4cc[nH]n4)c3)CC2)Oc2ccc(C(=O)N3CCOCC3)cc21 [Ex. M32, 6-(morpholin-4-ylcarbonyl)-1′-[3-(1H-pyrazol-3-yl)benzoyl]spiro[chromene-2,4′-piperidin]-4(3H)-one] |

same assay, conditions: Table of Examples O1-O4

| pIC50 | Molecule |
| --- | --- |
| 6.04 | O=C1CC2(CCN(C(=O)c3cccc(-c4ccn[nH]4)c3)CC2)Oc2ccccc21 [Ex. O1, 1′-[3-(1H-pyrazol-5-yl)benzoyl]spiro[chromene-2,4′-piperidin]-4(3H)-one] |

same assay, conditions: Table of Examples P1-P15

| pIC50 | Molecule |
| --- | --- |
| 5.15 | CCc1nc(-c2cccc(C(=O)N3CCC4(CC3)CC(=O)c3cc(C)c(C)cc3O4)c2)no1 [Ex. P15, 6,7-Dimethyl-1′-[3-(5-ethyl-1,2,4-oxadiazol-3-yl)benzoyl]spiro[chromene-2,4′-piperidin]-4(3H)-one] |
| > 5.52 | Cc1cc2c(cc1C)C(=O)CC1(CCN(C(=O)c3cc(-c4ccn(C)n4)ccc3Cl)CC1)O2 [Ex. P3, 1′-[2-chloro-5-(1-methyl-1H-pyrazol-3-yl)benzoyl]-6,7-dimethylspiro[chromene-2,4′-piperidin]-4(3H)-one] |
